How the values were obtained:
[1] = Physical stability assay, dynamic light scattering; assay type: physicochemical
Source text: Physical stability can be assessed by dynamic and static light scattering. In dynamic light scattering, microsecond fluctuations in scattered laser light incident on a aqueous sample is detected and transformed into diffusion coefficients (Df) of the individual species via the so-called autocorrelation function. For convenience, the diffusion coefficients are typically reported in hydrodynamic radii (Rh) assuming the sample to consist of spherical species. Furthermore, from the radii, an empirical estimate of the molecular weight is obtained. Dynamic light scattering is extremely sensitive and can resolve very small amounts of aggregated species that are undesirable in pharmaceutical formulations. The average, static intensity recorded by the detector also serves as an overall measure of the physical stability of the sample as development of larger species increase the scattered intensity drastically. In order to measure the physical stability of peptides, DLS was applied to aqueous solutions of peptides. Measurements were performed on a Wyatt (Santa Barbara, Calif.) DynaPro DLS plate reader at 25° C., and samples were kept at 37° C. between measurements. Samples were measured for up to two weeks. Measurements were performed in […] triplicate in Corning 3540 384-well microtiter plates (Corning, N.Y.) sealed with transparent plastic foil (Thermo Fischer Scientific, Waltham, Mass.) with twenty 10-second acquisitions per measurement. Autocorrelation curves were fitted with a regularization fit in Dynamics 7.1.7.16 and the resulting diffusion coefficients were transformed into hydrodynamic radii and molecular mass assuming a spherical shape (Table 2). Normalized intensities are reported as is.
Judging from the autocorrelation functions and the normalized static intensity, only minute amounts of aggregate were present at any time independent of sample concentration.

db/db mice = assay: Antidiabetic effect (acute blood glucose) in db/db mice; assay type: in vivo, male db/db (C57B1/KS db/db) mice
Protocol: The mice, 48 male db/db (C57B1/KS db/db), were purchased from Taconic, arriving at Novo Nordisk A/S Animal Unit at 6 weeks of age. The mice were housed according to standard rules in the animal unit and given free access to standard chow and tap water. The animals were kept at a room temperature of 22-24° C. and housed in groups of 5 mice, with free access to food and water, according to Animal Unit's SOP (Housing of experimental animals at Novo Nordisk A/S).
Test compound was administered as a single dose s.c.
Blood glucose was measured in a 5 μl full blood sample taken from the tip of the tail by puncturing the capillary bed with a lancet, using a 5 μl heparinised capillary tube to sample the blood. The capillary tube was then shaken into 2500 μl glucose/lactate System Solution and measured in a Biosen S_Line, autoanalyser (EKF Diagnostics GmbH, Magdeburg, Germany) according to the manufacturer's instructions. The samples were kept at room temperature until analysis. If analysis was postponed, samples were kept at 4° C. for a maximum of 24 h. The blood samples were taken at the following time points: 0, 30, 60, 120, 180 and 240 minutes and again at 24 h. After the 24 h sample, the blood was sampled from cheek or eye blood for drug exposure measurement in EDTA coated tubes. 50 μl plasma was pipetted from each animal for analysis in an in house immunoassay developed for GLP-1 analogues.

pH solubility assay = assay type: physicochemical; parameters: unit not given here; details: two days at 25° C.
Protocol: One approach is to make a pH gradient from a buffer mix consisting of two buffers (e.g. citrate 100 mM/phosphate 200 mM), spike with a concentrated sample stock, and then leave the samples for 2 days at ambient temperature. […] Samples were incubated for two days at 25° C., centrifuged at 4700 g, and the concentration measured in the supernatant on a Nanodrop UV spectrophotometer (Thermo Fischer Scientific, Waltham, Mass.) using a theoretical extinction coefficient of 6,990 cm^−1M^−1.

[2] = Pharmacokinetics in normal mice after i.v. and s.c. administration; assay type: in vivo, female C57B1/6J mice
Protocol: The mice, 60 female C57B1/6J were purchased from Taconic, arriving at Novo Nordisk A/S Animal Unit at 6-7 weeks of age. The mice were housed according to standard rules in the animal unit and given free access to standard chow and tap water. The animals were kept at a room temperature and housed in groups of 8 mice, with free access to food and water, according to Animal Unit's SOP (Housing of experimental animals at Novo Nordisk A/S).
Peptide is administered as a single dose either s.c. or i.v.
After the 2nd sample the mice were sacrificed. The plasma concentrations of the compounds with intact N-terminus were determined using a Luminescence Oxygen Chanelling Immuno-assay (LOCI). The donor beads were coated with streptavidin, while acceptor beads were conjugated with a monoclonal antibody recognizing a mid-/C-terminal epitope of the peptide. The other monoclonal antibody, specific for the N-terminus, was biotinylated. The three reactants were combined with the analyte and formed a two-sited immuno-complex. Illumination of the complex released singlet oxygen atoms from the donor beads, which were channeled into the acceptor beads and triggered chemiluminescence which was measured in an Envision plate reader. The amount of light was proportional to the concentration of the compound.

[3] = test system: Mouse monocyte/macrophage cell line, RAW 264.7; assay: Cholesterol efflux assay (3H-cholesterol, macrophage cell line); assay type: cell-based; details: RAW 264.7, 4 hrs incubation, 0.1% human serum albumin, ABCA1-mediated efflux
human GLP-1 receptor = human GLP-1 receptor (Homo sapiens, UniProt P43220); assay: Functional GLP-1 receptor assay, in vitro potency (CRE luciferase; whole cells); assay type: cell-based; details: GLP1R CRE luc 1% HSA EC50 Mean Value, BHK cells expressing human GLP-1 receptor, 1% HSA
human GLP-1 receptor, sequence (P43220 24-463): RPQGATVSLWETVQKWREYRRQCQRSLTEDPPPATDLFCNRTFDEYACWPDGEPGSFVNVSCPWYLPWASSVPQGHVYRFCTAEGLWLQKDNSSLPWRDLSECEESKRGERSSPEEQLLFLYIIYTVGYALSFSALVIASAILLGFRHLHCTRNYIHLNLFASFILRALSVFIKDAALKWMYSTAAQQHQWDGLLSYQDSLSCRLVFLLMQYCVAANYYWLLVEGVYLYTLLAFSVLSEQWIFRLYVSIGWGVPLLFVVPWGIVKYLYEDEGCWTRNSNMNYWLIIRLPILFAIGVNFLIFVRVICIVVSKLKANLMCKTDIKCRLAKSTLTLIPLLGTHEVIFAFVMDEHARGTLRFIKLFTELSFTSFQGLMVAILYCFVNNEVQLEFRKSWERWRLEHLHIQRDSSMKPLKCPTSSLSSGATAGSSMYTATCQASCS

[4] = female, C57B1/6J, mouse, plasma, sc

CC[C@H](C)[C@H](NC(=O)[C@H](Cc1ccccc1)NC(=O)[C@H](CCC(=O)O)NC(=O)[C@H](CCCCN)NC(=O)[C@@H](NC(=O)[C@H](C)NC(=O)[C@H](CCC(=O)O)NC(=O)CNC(=O)[C@H](CCC(=O)O)NC(=O)[C@H](CC(C)C)NC(=O)[C@H](Cc1ccc(O)cc1)NC(=O)[C@H](CO)NC(=O)[C@H](CO)NC(=O)[C@@H](NC(=O)[C@H](CC(=O)O)NC(=O)[C@H](CO)NC(=O)[C@@H](NC(=O)[C@H](Cc1ccccc1)NC(=O)[C@@H](NC(=O)CNC(=O)[C@H](CCC(=O)O)NC(=O)C(C)(C)NC(=O)[C@@H](N)Cc1c[nH]cn1)[C@@H](C)O)[C@@H](C)O)C(C)C)C(C)C)C(=O)N[C@@H](C)C(=O)N[C@@H](Cc1c[nH]c2ccccc12)C(=O)N[C@@H](CC(C)C)C(=O)N[C@H](C(=O)N[C@@H](CCC(=O)O)C(=O)N[C@@H](CCCCN)C(=O)NC(C)(C)C(=O)N[C@@H](CCCCN)C(=O)N[C@@H](CCC(=O)O)C(=O)N[C@@H](Cc1ccccc1)C(=O)N[C@@H](CC(C)C)C(N)=O)C(C)C [Compound 1, [Aib8,Glu23,Val25,Glu34,Lys35,Aib36,Lys37]-GLP-1-(7-37)-peptidyl-Glu-Phe-Leu amide]
Inorm avg. ([1]; 0.9 mg/mL, 37° C., t 0 days): 1.15E+06 kcts
Rh avg. ([1]; 0.9 mg/mL, 37° C., t 0 days): 2.32 nm
Inorm avg. ([1]; 0.9 mg/mL, 37° C., t 1 days): 1.48E+06 kcts
Rh avg. ([1]; 0.9 mg/mL, 37° C., t 1 days): 2.31 nm
Inorm avg. ([1]; 0.9 mg/mL, 37° C., t 4 days): 3.76E+06 kcts
Rh avg. ([1]; 0.9 mg/mL, 37° C., t 4 days): 1.94 nm
Inorm avg. ([1]; 0.9 mg/mL, 37° C., t 8 days): 1.27E+06 kcts
Rh avg. ([1]; 0.9 mg/mL, 37° C., t 8 days): 2.26 nm
Inorm avg. ([1]; 0.9 mg/mL, 37° C., t 13 days): 2.25E+06 kcts
Rh avg. ([1]; 0.9 mg/mL, 37° C., t 13 days): 2.44 nm
oligomer size (molecular weight consistent with number of monomers) ([1]; 20 mM phosphate pH 7.5 buffer, 0.9 mg/mL or 45.5 mg/mL): approximately 4 monomers
oligomer stability by DLS ([1]; 20 mM phosphate pH 7.5 buffer, 0.9 mg/mL or 45.5 mg/mL, 37° C., up to two weeks): remained stable throughout the sample period
Inorm avg. ([1]; 45.5 mg/mL, 37° C., t 0 days): 8.33E+06 kcts
Rh avg. ([1]; 45.5 mg/mL, 37° C., t 0 days): 2.13 nm
Inorm avg. ([1]; 45.5 mg/mL, 37° C., t 1 days): 9.29E+06 kcts
Rh avg. ([1]; 45.5 mg/mL, 37° C., t 1 days): 2.27 nm
Inorm avg. ([1]; 45.5 mg/mL, 37° C., t 4 days): 1.04E+07 kcts
Rh avg. ([1]; 45.5 mg/mL, 37° C., t 4 days): 2.27 nm
Inorm avg. ([1]; 45.5 mg/mL, 37° C., t 6 days): 6.55E+06 kcts
Rh avg. ([1]; 45.5 mg/mL, 37° C., t 6 days): 2.35 nm
Inorm avg. ([1]; 45.5 mg/mL, 37° C., t 14 days): 7.18E+06 kcts
Rh avg. ([1]; 45.5 mg/mL, 37° C., t 14 days): 2.28 nm
duration of action (db/db mice; single s.c. dose): at least 24 h
acute effect on blood glucose (db/db mice; single s.c. dose 10, 30, 100 and 300 nmol/kg): lowered blood glucose in a dose-dependent manner
Plasma concentration 24 hours after dosing (db/db mice; single s.c. dose, FIG. 1B): still very high
Conc. supernatant (pH solubility assay; pH meas. 4.15, citrate 100 mM/phosphate 200 mM): 0.009
Conc. supernatant (pH solubility assay; pH meas. 4.50, citrate 100 mM/phosphate 200 mM): 0.002
Conc. supernatant (pH solubility assay; pH meas. 4.95, citrate 100 mM/phosphate 200 mM): 0.005
Conc. supernatant (pH solubility assay; pH meas. 5.29, citrate 100 mM/phosphate 200 mM): 0.021
Conc. supernatant (pH solubility assay; pH meas. 5.75, citrate 100 mM/phosphate 200 mM): 0.270
Conc. supernatant (pH solubility assay; pH meas. 6.10, citrate 100 mM/phosphate 200 mM): 0.228
Conc. supernatant (pH solubility assay; pH meas. 6.42, citrate 100 mM/phosphate 200 mM): 0.234
Conc. supernatant (pH solubility assay; pH meas. 6.76, citrate 100 mM/phosphate 200 mM): 0.249
Conc. supernatant (pH solubility assay; pH meas. 7.21, citrate 100 mM/phosphate 200 mM): 0.233
Conc. supernatant (pH solubility assay; pH meas. 7.65, citrate 100 mM/phosphate 200 mM): 0.244
Conc. supernatant (pH solubility assay; pH meas. 8.29, citrate 100 mM/phosphate 200 mM): 0.254
Conc. supernatant (pH solubility assay; pH meas. 8.65, phosphate 200 mM only): 0.247
half-life ([2]; female, C57B1/6J, mouse, plasma, iv): 6.7 h
Vd ([2]; female, C57B1/6J, mouse, plasma, iv, read-out: Volume of distribution): 0.0456 L/kg
Tmax [2, 4]: 4 h
half-life [2, 4]: 11.5 h
clearance ([2]; mice, i.v., Compound 1 dose 99 nmol/kg, Compound 5 dose 135 nmol/kg): 4.69 mL/h/kg
Volume of distribution ([2]; mice, s.c., Compound 1 dose 323 nmol/kg, Compound 5 dose 62 nmol/kg): 0.1592 L/kg
4 h Cholesterol Efflux Emax [3]: 100%
EC50 (human GLP-1 receptor): 0.111 nM

Source: patent US20150344540A1, “NOVEL GLP-1 RECEPTOR AGONISTS WITH CHOLESTEROL EFFLUX ACTIVITY” (NOVO NORDISK A/S, priority 2012, published 2015)
